≈ marks a conversion by molar mass, not a printed value. Entries after “also recorded” stand apart in the source; their conditions may differ. Read-outs that look alike come from different tables or passages of the source.

Data set [1] deals with Mtb-infected bone marrow derived macrophages (BMDM). In words: bacterial load in Mtb-infected bone marrow derived macrophages. The class given is cell-based. The settings on record: for reduction in the number of bacilli: iron chelating agent added to SnPPIX; for intracellular bacterial burden: iron chelating agent alone; for effect on SnPPIX-induced reduction in bacillary load: incubated in conjunction with SnPPIX; for number of bacteria: iron donor added alone.

Data set [2] has as its system M. tuberculosis strain H37Rv. As to the kind of experiment: micro-dilution broth MIC99 assay in GAST media. The class given is cell-based. The conditions noted are these: for MIC99: read-out: day 28 MIC99; for inhibition of bacterial growth: 28-day period.
Data set [3] has as its system GFP-expressing M. tuberculosis/pMSP12. As to the kind of experiment: microbe, parasite or virus in culture. It is filed as cell-based. The settings on record: for MIC: read-out: day 21 MIC95.
Another data set concerns heme oxygenase. The conditions noted are these: comparison SnPPIX vs ZnPPIX; cited from earlier work.
Data set [4] addresses T1, recombinant human HO-1-G139A (hHO-1) (Homo sapiens, UniProt P09601, G139A).
T1 construct: made in house
T1 sequence (P09601 1-288 G139A): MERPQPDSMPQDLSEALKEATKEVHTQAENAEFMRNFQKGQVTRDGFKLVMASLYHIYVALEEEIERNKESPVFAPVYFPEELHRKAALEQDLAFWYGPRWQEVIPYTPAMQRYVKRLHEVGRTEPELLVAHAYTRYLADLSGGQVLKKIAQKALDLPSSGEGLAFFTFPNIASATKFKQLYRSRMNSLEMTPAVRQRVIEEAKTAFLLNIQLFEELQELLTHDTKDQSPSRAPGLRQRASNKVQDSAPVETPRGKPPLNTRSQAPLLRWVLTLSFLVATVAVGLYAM
In words: heme degradation by recombinant human HO-1-G139A, UV/vis spectroscopy. The class given is biochemical. The conditions noted are these: 2 μM SnPPIX, 1 hour.

Data set [5] has as its system M. tuberculosis strain H37Rv. It is filed as in vivo, mice.
A further data set has as its target T2, M. tuberculosis MhuD (Mycobacterium tuberculosis, UniProt P9WKH3).
T2 construct: His6 (C); made in house; host or cells: Escherichia coli BL21-Gold (DE3)
In words: MhuD heme/SnPPIX degradation assay by UV/vis spectroscopy. It is filed as biochemical.

For data set [6] the following is noted: newborns, clinical use; cited from earlier work.
For data set [7] the following is noted: comparison ZnPPIX vs SnPPIX; cited from earlier work.

T2 sequence (P9WKH3 whole entry): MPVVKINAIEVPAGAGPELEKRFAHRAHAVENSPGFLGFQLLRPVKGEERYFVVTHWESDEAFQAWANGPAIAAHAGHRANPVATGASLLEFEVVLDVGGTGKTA

Take `c1ccc(-c2ccccn2)nc1` [DP, 2′2′dipyridyl]: in data set [1], the “reduction in the number of bacilli” value is “further enhancement in the reduction” and the intracellular bacterial burden result is “significant reduction”.

On to `[Cl][Fe]([Cl])[Cl]` [FeCl3], for which, in [1], the “effect on SnPPIX-induced reduction in bacillary load” value is listed as “completely inhibited the reduction in bacillary load” and the number of bacteria result is recorded as “did not significantly enhance the number of bacteria”.

As for `O=S(=O)([O-])[O-].[Fe+2]` [FeSO4], in data set [1], the “effect on SnPPIX-induced reduction in bacillary load” value is listed as “completely inhibited the reduction in bacillary load” and the number of bacteria result is “did not significantly enhance the number of bacteria”.

One may read the MIC99 as an inhibitory concentration at the 99% level, which refers to growth in some studies and to a panel of isolates in others. As to `NNC(=O)c1ccncc1` [Isoniazid, reference compound], the MIC99 amounted to 0.1 µM in data set [2] (Mycobacterium tuberculosis, H37RV, 672 h, GAST + 10 μM Hemin); 0.1 µM (≈ 0.0137 µg/mL) in data set [2] (Mycobacterium tuberculosis, H37RV, 672 h, GAST medium); 0.2 µM (≈ 0.0274 µg/mL) in [2] (Mycobacterium tuberculosis, H37RV, 672 h, GASTFe medium).

On to `Cc1ncc(CO)c(C=NNC(=O)c2ccncc2)c1O` [PIH, pyridoxal isonicotinoyl hydrazone], for which, in [1], the “reduction in the number of bacilli” value is listed as “further enhancement in the reduction” and the intracellular bacterial burden entry is listed as “significant reduction”.

Turning to `CO[C@H]1/C=C/O[C@@]2(C)Oc3c(C)c(O)c4c(O)c(c(/C=N/N5CCN(C)CC5)c(O)c4c3C2=O)NC(=O)/C(C)=C\C=C\[C@H](C)[C@H](O)[C@@H](C)[C@@H](O)[C@@H](C)[C@H](OC(C)=O)[C@@H]1C` [Rifampicin, reference compound], the MIC in data set [3] (Mycobacterium tuberculosis, 504 h, pH 6) came out at 0.04 µM (≈ 0.0329 µg/mL); in [3] (Mycobacterium tuberculosis, 504 h), 0.04 µM (≈ 0.0329 µg/mL).

As to `C=Cc1c(C)c2cc3[nH]c(cc4nc(cc5nc(cc1[nH]2)C(C)=C5CCC(=O)[O-])C(CCC(=O)[O-])=C4C)c(C)c3C=C.[Cl-].[Cl-].[Sn+4]` [SnPPIX, tin (IV) protoporphyrin IX dichloride], the “heme oxygenase inhibitory capacity” value in the data set on heme oxygenase is “higher heme oxygenase inhibitory capacity compared with ZnPPIX”. The MIC in [3] (pH 6) and in data set [3] was over 125 µM in each case. Besides, the “inhibition of bacterial growth” value in data set [3] (pH 7) is on record as “no inhibition of bacterial growth was observed”; in data set [2] (125 μM, complete (iron-containing) GAST medium), “No inhibition of bacterial growth was observed”; in data set [2] (125 μM, iron-free medium), “toxicity was observed”. For the same compound, the “heme-degrading activity of HO-1” value in data set [4] was “blocked”. Besides, the “effect on bacterial load by organ” value in [5] (C57BL/6, lungs vs mediastinal lymph nodes or spleens) is reported as “more prominent in the lungs”. Besides, in data set [5] (SnPPIX initiated 6 weeks after initiation of RHZ therapy), the “enhancement of RHZ efficacy” value is recorded as “failed to enhance RHZ efficacy”. Besides, the bacterial loads entry in data set [5] (TCR-α−/− mice, treatment from 4 wpi, euthanized two weeks after initiation) is “indistinguishable from those of untreated”. Further, in [5] (mouse, in vivo), the mycobacterial load result is recorded as “highly significant reduction”. Besides, the “protection / mortality kinetics” value in [5] (mouse, in vivo) is listed as “failed to protect”. The pulmonary bacterial load result in data set [5] (mouse, in vivo) was “not at 3 wpi; also recorded: no difference in bacterial loads”; in data set [5] (mouse, in vivo, ip, 5 mg/kg), “highly significant reduction”. Also, the “reduction in pulmonary bacterial loads below untreated infected mice” value in data set [5] (mouse, in vivo) is recorded as about 1 log. The “bacterial loads in lungs and mediastinal lymph nodes vs non-treated mice” value in [5] (mouse, in vivo, ip) is “diminished bacterial loads”. Also, the cellular bacterial load entry in data set [1] (added alone) is “reduced cellular bacterial load”. Also, the “effect on heme degradation by MhuD” value at M. tuberculosis MhuD (2 μM SnPPIX, 5 μM MhuD-heme, 1 hour) is on record as “does not appear to have an effect”. Moreover, at M. tuberculosis MhuD (monitored for 24 hours), the “SnPPIX degradation by MhuD” value is “no SnPPIX degradation even after 24 hours”. For the same compound, in [2] (125 μM, iron-free medium plus 10 μM hemin), the “effect of hemin addition on toxicity in iron-free medium” value is on record as “reversed this effect”. Also, the MIC99 in data set [2] (GAST + 10 μM Hemin) was over 125 µM; in data set [2] (GAST medium), 125 µM; in data set [2] (GASTFe medium) it was over 125 µM. Besides, the side effects entry in data set [6] is recorded as “minimum side effects”.

Regarding `C=CC1=C(C)c2cc3[n-]c(cc4[n-]c(cc5nc(cc1n2)C(C)=C5C=C)c(C)c4CCC(=O)O)c(CCC(=O)O)c3C.[Zn+2]` [ZnPPIX, zinc (II) protoporphyrin IX], the solubility result in [7] is “less soluble than SnPPIX”.
